Results: PMC9296036, “A peptide interfering with the dimerization of oncogenic KITENIN protein and its stability suppresses colorectal tumour progression” (Clinical and Translational Medicine, 2022)
Ends that are not written are not given here.

Molecular target: T1, KITENIN (Mus musculus, UniProt Q80Z96)
T1 construct: decreased endogenous KITENIN protein levels in non‐transfected HCT116 and CT‐26 cells; endogenous in cells; host or cells: CT-26
T1 sequence (Q80Z96 1-526): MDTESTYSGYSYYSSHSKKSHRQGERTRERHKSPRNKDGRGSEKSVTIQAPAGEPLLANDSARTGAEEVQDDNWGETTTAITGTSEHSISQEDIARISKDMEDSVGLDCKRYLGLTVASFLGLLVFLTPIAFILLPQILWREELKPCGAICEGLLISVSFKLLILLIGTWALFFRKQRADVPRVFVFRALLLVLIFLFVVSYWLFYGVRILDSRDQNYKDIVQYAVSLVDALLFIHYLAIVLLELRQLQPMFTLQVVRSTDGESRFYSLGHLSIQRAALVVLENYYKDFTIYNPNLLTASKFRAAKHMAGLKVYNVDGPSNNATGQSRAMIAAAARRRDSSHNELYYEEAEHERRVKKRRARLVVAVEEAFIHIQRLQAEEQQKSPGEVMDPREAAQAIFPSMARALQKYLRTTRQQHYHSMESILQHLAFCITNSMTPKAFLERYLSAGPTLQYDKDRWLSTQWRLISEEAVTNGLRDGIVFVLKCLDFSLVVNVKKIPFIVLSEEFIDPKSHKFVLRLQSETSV
Assay: Endogenous KITENIN protein level in CT-26 cells (immunoblot)
Format: cell-based
Conditions: non-transfected CT-26 cells, KDIP 1 μM, 12 h
Description: Antibodies against the following proteins were obtained from the indicated suppliers: Na^+/K^+ ATPase, GFP and tubulin (Santa Cruz Biotechnology); c‐Jun, p‐c‐Jun, ERK, p‐ERK, c‐MET, p‐c‐MET and GST (Cell Signaling Technology); V5, Myc (MBL); HA and β‐actin (Sigma); KITENIN (Atlas); His and RACK1, LC3, p62, Myo10, and eukaryotic elongation factor 2 (eEF2) (Abcam). They were used with appropriate secondary antibodies (Thermo). For transient transfection analyses, Caco2, HCT116 and 293T cells were transfected with various plasmids and harvested for immunoblot analysis 48 h after transfection. For most assays using stable cell lines, mixed polyclonal cells were used to exclude clonal variation. […]
FIGURE 2 KAI1 C‐terminal interacting tetraspanin (KITENIN) dimerization‐interfering peptide (KDIP) suppresses KITENIN‐induced enhanced cell invasion through the inhibition of the homodimerization of KITENIN. […] After 48 h of treatment, KITENIN transcripts in cells were analysed by the 2^−ΔΔ ^CT method using Q‐PCR. […] Caco2 cells were co‐transfected with KITENIN‐V5/Myc and treated with or without KDIP or scrambled peptide (scr) and were immunoprecipitated with anti‐V5 antibody and detected by indicated antibodies. Numerals indicated a quantification of the MYC bands normalized to the corresponding V5 bands (left panel). […] Numerals indicated a quantification of the bands observed (left panel). […]

endogenous KITENIN protein level (in words): decreased
Sequence: YARVRRRGPRRWRLVSDEAV [KDIP]
